Experiment [1] deals with T1, PP1c (Homo sapiens, UniProt P62136).
T1 construct: purchased Calbiochem
Description: PP1c binding assay on cellulose-bound Bcl-xL or Bcl-w peptides. As to conditions: membrane-immobilized peptides, anti-PP1c antibody, ECL. The source says: Spots were detected using ECL system. […] Mutated amino acids into the motif are in bold and underlined. Similar results were obtained in two independent experiments. Peptide 1 corresponds to the PP1 binding motif of Bcl-xL and Bcl-w. Peptide 2 corresponds to the mutated PP1 binding site were V and F residues were mutated to A. FIG. 5b contains the following sequences: NWGRIVAFFSFG (SEQ ID NO: 6), NWGRIAAAFSFG (SEQ ID NO: 51): GDEFELRYRRAF (SEQ ID NO: 7). GDEGELGYGRAF (SEQ ID NO: 59): GDESELSYSRAF (SEQ ID NO: 54). GDEFELGYGRAF (SEQ ID NO: 55): GDEFELSYSRAF (SEQ ID NO: 56). GDEGELRYRRAF (SEQ ID NO: 57): GDEGELRYRRAF (SEQ ID NO: 58): GDEGELGYRRAF (SEQ ID NO: 59). GDESELSYRRAF (SEQ ID NO: 60). PNWGRLVAFFVFG (SEQ ID NO: 61): PNWGRLAAAFVFG (SEQ ID NO: 62). GDEFETRFRRTFS (SEQ ID NO: 63): GDEFETGFGRTFS (SEQ ID NO: 64). GDEFETGFGRTFS (SEQ ID NO: 65), GDEFETRFGRTFS (SEQ ID NO: 66). GDEGETGFRRTFS (SEQ ID NO: 67). GDEGETRFRRTFS (SEQ ID NO: 68). FIG. 5a contains the following sequences FSRRYR (SEQ ID NO: 5). FTARGR (SEQ ID NO: 5). FELRYR (SEQ ID NO: 5). FETRFR (SEQ ID NO: 5).
Membrane was blocked, incubated with purified PP1c and, after several washing steps, incubated with anti-PP1c antibody, followed by PO-conjugated secondary antibody. Spots were developed using the ECL system.
It has been described that R/K X V/I X F motif is shared by most of the PP1c targeting subunits (21, 23). […]

In experiment [2] the target is T2, Bcl-xL/PP1c/Bad and Bcl-w/PP1c/Bad (Mus musculus, UniProt P62137).
T2 construct: Lysates from IL-4-stimulated cells were immunoprecipitated with anti-Bad antibody and Protein A Sepharose was added; endogenous in cells; host or cells: TS1αβ murine T cell line, IL-4-stimulated; anti-Bad immunoprecipitates on Protein A Sepharose
The experiment can be described thus: Protein-protein interaction competition in anti-Bad immunoprecipitates, western blot. Particulars: 1.5 mM peptide, 30 min, room temperature; anti-Bad immunoprecipitates of IL-4-stimulated cells. Format: binding, murine. As for the experimental part: A) Cytoplasmic extracts from control IL-4-stimulated cells were immunoprecipitated with anti-Bad antibody. The interaction Bcl-xL/PP1c/Bad and Bcl-w/PP1c/Bad was competed with 1.5 mM of R, R*, F or R+F peptides for 30 min at room temperature. Immunoprecipitates were washed, transferred to nitrocellulose and blotted with anti-Bad, anti-PP1c, anti-Bcl-xL and anti-Bcl-w. Similar results were obtained in two independent experiments. For sequence of peptides, see Materials and Methods or FIGS. 5A and 5B.
Cells (1×10^7) were IL-4-stimulated or -deprived and lysed for 20 min at 4° C. in lysis buffer (50 mM Tris HCl pH 8, 1% NP40, 137 mM NaCl, 1 mM MgCl2, 1 mM CaCl2, 10% glycerol and protease inhibitors cocktail). Digitonin or detergent free buffers were also used for immunoprecipitation. […]
(§1) Lysates from IL-4-stimulated cells were immunoprecipitated with anti-Bad antibody and the interaction Bcl-xL/PP1c and Bcl-w/PP1c was competed using R* (NWGRIAAAFSF) (SEQ ID NO: 8), R (NWGRIVAFFSF) (SEQ ID NO: 6) or F (GDEFELRYRRAF) (SEQ ID NO: 7) peptides (FIG. 8A). Bcl-xL, Bcl-w and PP1c were detected in control anti-Bad immunoprecipitates, as well as in anti-Bad immunoprecipitates treated with R* peptide. […] Phosphatase activity was detected in control or R* peptide-treated immunoprecipitates (FIG. 8B), decreasing upon competition of the interaction with F or R peptides. […]
Background: Immunoblotting shows a protein as a band on a membrane.

Experiment [3] has as its target T3, PP1c (Mus musculus, UniProt P62137). The experiment can be described thus: Phosphatase activity in peptide-treated Bad immunoprecipitates. Format: biochemical, murine. On the set-up: Lysates from IL-4-stimulated cells were immunoprecipitated with anti-Bad antibody and Protein A Sepharose was added; endogenous in cells; host or cells: TS1αβ murine T cell line, IL-4-stimulated; anti-Bad immunoprecipitates on Protein A Sepharose. Particulars: 1.5 mM peptide, 30 min, room temperature. As to the method: B) Cytoplasmic lysates from IL-4-stimulated cells were immunoprecipitated with anti-Bad antibody. Immunoprecipitates were treated with 1.5 mM of R, R*, F or R+F peptides for 30 min at room temperature. Immunoprecipitates were washed and phosphatase activity estimated using ^32P phosphorylase a as substrate. Similar results were obtained in two independent experiments.
C) Cytoplasmic lysates from IL-4-stimulated cells were immunoprecipitated with anti-Bad antibody and then treated with 1.5 mM of R+F peptide or 3 mM of R or F peptide (30 min, room temperature). Immunoprecipitates were washed and phosphatase activity estimated as in B.
IL-4-stimulated cells (1×10^7) were lysed in lysis buffer, supernatants were immunoprecipitated with the corresponding antibody, followed by incubation with Protein A Sepharose. […]
as §1
Target sequence in this assay (P62137 2-330 limits assumed): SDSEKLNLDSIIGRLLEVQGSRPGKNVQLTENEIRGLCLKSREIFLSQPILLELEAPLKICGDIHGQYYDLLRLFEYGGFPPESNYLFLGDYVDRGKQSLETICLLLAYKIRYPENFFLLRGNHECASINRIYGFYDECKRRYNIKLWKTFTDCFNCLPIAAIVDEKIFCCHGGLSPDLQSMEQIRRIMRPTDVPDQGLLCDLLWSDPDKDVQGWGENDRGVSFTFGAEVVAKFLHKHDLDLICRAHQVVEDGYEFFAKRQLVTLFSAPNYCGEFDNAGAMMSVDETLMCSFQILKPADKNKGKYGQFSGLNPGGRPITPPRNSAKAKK

The subject of experiment [4] is type 1 and type 2A activities. Description: In vitro phosphatase assay in supernatants of Bad and Bcl-w immunoprecipitates with okadaic acid. Format: biochemical, murine. As to conditions: 10^−9 M OA. As for the experimental part:
B) Different concentrations of OA were added to Bad or Bcl-w immunoprecipitates from IL-4 stimulated cells. Phosphatase activity was estimated using ^32P phosphorylase a as substrate. The reaction was as in A. Similar results were obtained in three independent experiments. Phosphatase activity is represented as the percentage of maximal activity in untreated supernatants.
(§2) IL-4-stimulated cells (1×10^7) were lysed in lysis buffer, supernatants were immunoprecipitated with the corresponding antibody, followed by incubation with Protein A Sepharose. Immunoprecipitates were washed with phosphatase buffer (50 mM Tris HCl, pH 7.5, 0.1% 2-ME, 0.1 mM EDTA and 1 mg/ml BSA) and mixed with [^32P] phosphorylase a, diluted in phosphatase buffer supplemented with caffeine. The reaction was incubated (40 min at 30° C.), stopped with 200 μl 20% TCA and centrifuged. A total of 185 μl of the supernatant were used to estimate the generation of free phosphate liberated from [^32P] phosphorylase a.
The enzymatic activity in the immunoprecipitates was measured using ^32P-labeled phosphorylase a as substrate. It is interesting to notice that phosphatase activity detected in Bcl-xL and Bcl-w immunoprecipitates nearly corresponds to the phosphatase activity observed in Bad immunoprecipitates. […]

In the next experiment the test system is Bad. The experiment can be described thus: Serine 136 phosphorylation of Bad in OA-treated cells, western blot. Format: cell-based, murine. As for the experimental part: A) Cells were treated with or without 1 μM OA in the presence or the absence of IL-4. […] Protein bands were detected using ECL.
Cells (1×10^7) were IL-4-stimulated or -deprived and lysed for 20 min at 4° C. in lysis buffer (50 mM Tris HCl pH 8, 1% NP40, 137 mM NaCl, 1 mM MgCl2, 1 mM CaCl2, 10% glycerol and protease inhibitors cocktail). Digitonin or detergent free buffers were also used for immunoprecipitation. For phosphorylation analysis, the buffer was also supplemented with phosphatase inhibitors cocktail. Lysates were immunoprecipitated with the Appropriate antibody and Protein A Sepharose was added. Alliteratively, cells were lysed in Laemmli sample buffer and protein extracts separated by SDS-PAGE, transferred to nitrocellulose, blocked and incubated with primary antibody. Membrane was washed and incubated. with PO-conjugated secondary antibody. Proteins were developed using the ECL.
As IL-4-deprivation correlates with Bad dephosphorylation and apoptosis, it was hypothesized that inhibition of phosphatase activity by okadaic acid (OA) treatment may prevent Bad dephosphorylation and apoptosis. Treatment of the cells with 1 μM OA in the absence of IL-4 prevented Bad dephosphorylation at serine 136 (FIG. 9A). […] The inhibition of Bcl-xL and Bcl-w expression upon antisense oligonucleotide treatment was estimated by Western blot.

The test system of a further experiment is TS1αβ cells. The experiment can be described thus: Apoptosis by propidium iodide staining and flow cytometry. Format: cell-based, murine. As to conditions: IL-4-deprived cells, 1 μM OA for 6 h.
Experiment [5] deals with T3, PP1c. Description: In vitro phosphatase assay in Bad or Bcl-w immunoprecipitates with okadaic acid, 32P phosphorylase a as substrate. In kind it is biochemical, murine. Details: enzymatic activity was estimated in Bad or Bcl-w immunoprecipitates from IL-4-stimulated cells; endogenous in cells; host or cells: TS1αβ murine T cell line, IL-4-stimulated; anti-Bad or anti-Bcl-w immunoprecipitates on Protein A Sepharose. As for the experimental part: B) Different concentrations of OA were added to Bad or Bcl-w immunoprecipitates from IL-4 stimulated cells. Phosphatase activity was estimated using ^32P phosphorylase a as substrate. […] Phosphatase activity is represented as the percentage of maximal activity in untreated supernatants.
as §2
Target sequence in this assay (P62137 2-330): as the sequence (P62137 2-330 limits assumed) above
Target sequence in this assay (P70345 2-193, further chain): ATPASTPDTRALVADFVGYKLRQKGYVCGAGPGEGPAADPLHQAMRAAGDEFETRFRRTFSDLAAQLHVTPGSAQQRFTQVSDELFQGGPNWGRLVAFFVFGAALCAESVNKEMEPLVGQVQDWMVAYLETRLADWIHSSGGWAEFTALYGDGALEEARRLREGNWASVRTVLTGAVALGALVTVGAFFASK
Target sequence in this assay (Q61337 whole entry, further chain): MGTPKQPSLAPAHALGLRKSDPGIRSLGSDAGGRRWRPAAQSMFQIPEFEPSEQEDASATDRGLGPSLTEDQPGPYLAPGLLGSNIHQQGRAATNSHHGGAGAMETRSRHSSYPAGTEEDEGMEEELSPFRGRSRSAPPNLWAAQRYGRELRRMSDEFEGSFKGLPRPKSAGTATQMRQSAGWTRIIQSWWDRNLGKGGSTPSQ
The enzymatic activity in the immunoprecipitates was measured using ^32P-labeled phosphorylase a as substrate. […] To confirm that this phosphatase activity was due to PP1c, enzymatic activity was estimated in Bad or Bcl-w immunoprecipitates from IL-4-stimulated cells in the presence of different okadaic acid (OA) concentrations (FIG. 5B). […] The effect of OA on phosphatase activity was also estimated in supernatants of Bad and Bcl-w immunoprecipitates.

T1 sequence (P62136 whole entry): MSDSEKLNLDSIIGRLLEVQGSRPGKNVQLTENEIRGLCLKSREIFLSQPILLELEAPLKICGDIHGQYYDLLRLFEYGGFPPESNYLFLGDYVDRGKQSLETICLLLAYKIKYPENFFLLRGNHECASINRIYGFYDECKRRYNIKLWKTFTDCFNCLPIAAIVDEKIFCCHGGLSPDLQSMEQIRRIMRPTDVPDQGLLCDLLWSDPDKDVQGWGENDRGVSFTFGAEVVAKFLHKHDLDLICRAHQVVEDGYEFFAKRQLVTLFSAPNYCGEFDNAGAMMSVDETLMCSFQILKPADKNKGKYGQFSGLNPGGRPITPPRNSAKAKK
T2 sequence (P62137 2-330 limits assumed): as the sequence (P62137 2-330 limits assumed) above

Consider FELRYR, for which, at PP1c [1], the “binding to purified PP1c” value is “interacts with PP1c”.
As to GDEFELRYRRAF [F peptide], the “amount of Bcl-xL, Bcl-w and PP1c associated to Bad after competition” value in experiment [2] is listed as “decreases”. Besides, in the experiment with PP1c [3], the “phosphatase activity in peptide-treated Bad immunoprecipitates” value is listed as “decreasing”.
As to FETRFR, the “binding to purified PP1c” value on PP1c [1] is reported as “interacts with PP1c”.
One may read the inhibition as the share of the control response that was lost under treatment. `C=C1[C@@H](O)[C@@H]2O[C@]3(CC[C@H](/C=C/[C@@H](C)[C@@H]4CC(C)=C[C@@]5(O[C@H](C[C@@](C)(O)C(=O)O)CC[C@H]5O)O4)O3)CC[C@H]2O[C@@H]1[C@@H](O)C[C@H](C)[C@H]1O[C@@]2(CCCCO2)CC[C@H]1C` [OA, okadaic acid]: the “inhibition of phosphatase activity in the supernatant” value in experiment [4] is recorded as roughly 50%. For the same compound, in the experiment on Bad (1 μM OA in the absence of IL-4), the “Bad dephosphorylation at serine 136” value was “prevented”. Moreover, the “total Bad expression” value in the experiment on Bad (after OA treatment (1 μM)) was “No changes”. Besides, in the experiment with TS1αβ cells, the “fraction of apoptotic cells compared with untreated cells” value was “significant reduction”. Further, on PP1c [5] (10^−6 M OA, Bcl-w or Bad immunoprecipitates), the phosphatase activity entry is “strongly reduced”. In addition, at PP1c [5] (10^−8 M OA, Bcl-w or Bad immunoprecipitates), the inhibition at 0.01 µM is roughly 50%. Further, the “effect on Bad- or Bcl-w-associated phosphatase activity in vitro” value at PP1c [5] (10^−9 M OA, Bad or Bcl-w immunoprecipitates from IL-4-stimulated cells) was “no effect”.

Source of the values: patent publication US7741288B2, “Methods of screening of PP1-interacting polypeptides or proteins, peptides inhibiting PP1c binding to Bcl-2 proteins, Bcl-xL and Bcl-w, and uses thereof” (Institut Pasteur, priority 2002, dated 2010).
